Measured values from patent US20260240844A1, “INHIBITORS OF CHD1L AND USES THEREOF” (The Regents of the University of Colorado, a body corporate, priority 2023, published 2026).
Where two headings read alike, the source gives them in different places.

Assays:
[1] = system: PAR in SUM149PT cells; assay: PAR immunofluorescence (nuclear / cytoplasmic PAR); assay type: cell-based; conditions: SUM149PT cells, single agent; for nuclear PAR (PARylation): 4 h
[2] = system: HCC1937 tumor organoids; assay: Tumor organoid cytotoxicity, HCC1937; assay type: cell-based; conditions: Homo sapiens; HCC1937 (BRCA1 mutant HR-deficient); read-out: IC50, tumor organoid viability, single agent
Experimental: (§1) Tumor organoid culture—Cell lines were cultured as tumor organoids by seeding 2,000 to 5,000 cells/well into uncoated 96 well U-bottom Ultra Low Attachment Microplates (Corning) using their corresponding medium. Cell aggregation was then promoted by centrifugation of the plates for 15 min at 1,000 rpm followed by the addition of Matrigel (Corning) to a 2-5% final concentration. Tumor organoids were maintained under standard cell culture conditions for 72 h prior to drug treatment.
(§2) Organoids were then transferred to a white solid bottom 96 well plate and incubated with an equal volume of CellTiter Glo 3D reagent (Promega) for 45 min on a shaker at 400 rpm. Luminescence was recorded using the EnVision plate reader (PerkinElmer) and values normalized to the controls using GraphPad Prism.

[3] = system: MDA-MB-231 tumor organoids; assay: Tumor organoid cytotoxicity, MDA-MB-231; assay type: cell-based; conditions: Homo sapiens
Experimental: as §1, §2

[4] = biological target: PARP2 (Homo sapiens, UniProt Q9UGN5); assay: PARP2 enzymatic (colorimetric) assay; assay type: biochemical
Experimental: . First, a 96 well plate was coated with histones. Next, the biotinylated NAD^+ substrate was incubated with an activated DNA template, the inhibitor to test and the PARP1/2 enzyme for 1 h at RT. After that, the sample plate was treated with streptavidin-RP for 30 min at RT, followed by addition of the horseradish peroxidase (HRP) substrate until the colorimetric signal was developed. The EnVision plate reader (PerkinElmer) was used to measure the absorbance at 450 nm and the results were plotted and analyzed using GraphPad Prism.

[5] = system: SUM149PT cells; assay: Phosphatidylserine externalization, membrane integrity and DNA fragmentation; assay type: cell-based
Experimental: Phosphatidylserine externalization and membrane integrity—phosphatidylserine externalization and membrane integrity kinetics were analyzed using the RealTime-Glo™ Annexin V Apoptosis and Necrosis Assay (Promega, JA1012) according to the manufacturer's instructions. 8,000 cells were seeded per well in 96 well solid bottom white plates (Corning) in 100 μL and allowed to attach overnight. Then, 75 μL of media were removed, followed by the addition of 25 μL of the test compounds at 4× desired final concentration and 50 μL of the 2× detection reagent. Luminescence and fluorescence were measured overtime using an EnVision plate reader (PerkinElmer). No-cell and medium-only controls were used for background correction.
PARthanatos might be accompanied by other events also occurring during apoptosis or necrosis like mitochondrial depolarization, phosphatidylserine (PS) externalization, loss of membrane integrity and large-scale DNA fragmentation. To better characterize this mechanism, PS externalization and membrane integrity were studied using a real-time multiplex assay that monitors Annexin V binding to PS and simultaneous loss of cell membrane integrity with a membrane impermeable DNA binding dye. […] In contrast, CHD1Li caused a rapid and simultaneous increase of both when combined with SOC drugs, shifting the kinetics to a more non-apoptotic phenotype.

[6] = system: SUM149PT tumor organoids; assay: Tumor organoid cytotoxicity (CellTiter Glo 3D), SUM149PT; assay type: cell-based; conditions: for IC50: Homo sapiens
Experimental: Tumor organoid culture—Cell lines were cultured as tumor organoids by seeding 2,000 to 5,000 cells/well into uncoated 96 well U-bottom Ultra Low Attachment Microplates (Corning) using their corresponding medium.
Luminescence was recorded using the EnVision plate reader (PerkinElmer) and values normalized to the controls using GraphPad Prism.

Sequence of PARP2 (Q9UGN5 whole entry): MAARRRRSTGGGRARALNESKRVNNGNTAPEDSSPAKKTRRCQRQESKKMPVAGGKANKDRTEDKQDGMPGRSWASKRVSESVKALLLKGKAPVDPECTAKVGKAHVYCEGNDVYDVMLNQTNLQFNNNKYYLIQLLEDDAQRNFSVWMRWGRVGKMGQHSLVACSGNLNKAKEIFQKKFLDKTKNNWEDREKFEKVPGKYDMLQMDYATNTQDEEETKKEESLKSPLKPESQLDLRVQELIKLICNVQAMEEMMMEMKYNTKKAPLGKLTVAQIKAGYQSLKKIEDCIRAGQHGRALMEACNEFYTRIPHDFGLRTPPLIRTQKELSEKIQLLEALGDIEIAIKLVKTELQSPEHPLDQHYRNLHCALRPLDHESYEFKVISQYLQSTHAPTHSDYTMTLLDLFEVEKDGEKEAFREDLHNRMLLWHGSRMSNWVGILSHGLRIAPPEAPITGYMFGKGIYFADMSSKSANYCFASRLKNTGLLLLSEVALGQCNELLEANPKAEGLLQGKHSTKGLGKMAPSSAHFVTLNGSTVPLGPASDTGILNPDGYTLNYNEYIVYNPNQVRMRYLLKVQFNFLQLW

`Cc1cc(Nc2ccc(NC(=O)Cc3cccs3)cc2)nc(N2CCCC2)n1` [Compound 6, N-(4-((6-methyl-2-(pyrrolidin-1-yl)pyrimidin-4-yl)amino)phenyl)-2-(thiophen-2-yl)acetamide] was tested, and the “nuclear PAR (PARylation)” value [1] was “caused the same effects as PARPi”, the IC50 [2] was 2800 nM and the IC50 ([3]; MDA-MB-231, MDA-MB-231 (BRCA wildtype HR-proficient), read-out: IC50, tumor organoid viability, single agent) was 3300 nM. For the same molecule, the PARP2 enzyme activity [4] was “does not have any effect on PARP1/2 activity”, the “DNA fragmentation (Hoechst 33342)” value [5] was “large-scale fragmentation of DNA” and the IC50 ([6]; SUM149PT, SUM149PT (BRCA1 mutant HR-deficient), read-out: IC50, tumor organoid viability, single agent) was 1.7 µM. The “Bliss synergy score, cytotoxicity” value ([6]; SUM149PT tumor organoids, Compound 6 combined with 5-FU) was 59.
For `COc1cccc2c1C(=O)c1c(O)c3c(c(O)c1C2=O)C[C@@](O)(C(=O)CO)C[C@@H]3O[C@H]1C[C@H](N)[C@H](O)[C@H](C)O1` [doxorubicin], the “cytoplasmic PAR” value [1] was “no effect on cytoplasmic PAR”, the “nuclear PAR (PARylation)” value [1] was “increased PARylation in the nucleus” and the “nuclear PAR (PARylation)” value ([1]; listed as Doxorubicin) was “increased nuclear PAR”. For the same molecule, the “cytoplasmic PAR” value ([1]; listed as Doxorubicin) was “did not elevate cytoplasmic PAR”, the IC50 ([3]; MDA-MB-231, Compound 13 0 μM, read-out: IC50 doxorubicin (nM) in MDA-MB-231) was 346 nM and the IC50 ([3]; MDA-MB-231, Compound 13 2 μM, read-out: IC50 doxorubicin (nM) in MDA-MB-231) was 92.2 nM. For the same molecule, the IC50 ([3]; MDA-MB-231, Compound 13 2.25 μM, read-out: IC50 doxorubicin (nM) in MDA-MB-231) was 81.5 nM, the IC50 ([3]; MDA-MB-231, Compound 13 2.5 μM, read-out: IC50 doxorubicin (nM) in MDA-MB-231) was 20.2 nM and the “phosphatidylserine externalization / membrane integrity kinetics” value ([5]; real-time Annexin V assay) was “apoptotic kinetic phenotype”. It also gave an IC50 ([6]; SUM149PT, Compound 13 0 μM, read-out: IC50 doxorubicin (μM) in SUM149PT) of 0.505 µM, an IC50 ([6]; SUM149PT, Compound 13 2 μM, read-out: IC50 doxorubicin (μM) in SUM149PT) of 0.0944 µM and an IC50 ([6]; SUM149PT, Compound 13 2.25 μM, read-out: IC50 doxorubicin (μM) in SUM149PT) of 0.016 µM. The IC50 ([6]; SUM149PT, Compound 13 2.5 μM, read-out: IC50 doxorubicin (μM) in SUM149PT) was 0.279 µM, the IC50 ([6]; SUM149PT tumor organoids, 72 h, + non-lethal doses of Compound 6, read-out: IC50 of the drug in combination) was 0.28 ± 0.01 µM and the “increase in potency of the chemotherapy” value ([6]; SUM149PT BRCA1 mutant tumor organoids, + 1.9 μM Compound 6) was 20 fold. For the same molecule, the “improvement of IC50 potency” value ([6]; SUM149PT tumor organoids, combined with Compound 6) was 2 fold.
